From patent publication US20130065760A1, “Substituted Pyridines Having Herbicidal Action” (BASF SE, priority 2010, published 2013)

Tested on: AMARE
Test: greenhouse experiment, post-emergence treatment, herbicidal activity
Type: in vivo, Amaranthus retroflexus
Settings: post-emergence method, application rate 0.5 kg/ha, scale from 0 to 100
From the text: The seeds of the test plants were sown separately for each species. For the post-emergence treatment, the test plants were first grown to a height of 3 to 15 cm, depending on the plant habit, and only then treated with the active ingredients which had been suspended or emulsified in water. For this purpose, the test plants were either sown directly and grown in the same containers, or they were first grown separately as seedlings and transplanted into the test containers a few days prior to treatment. Depending on the species, the plants were kept at 10-25° C. or 20-35° C. The test period extended over 2 to 4 weeks. During this time, the plants were tended, and their response to the individual treatments was evaluated. Evaluation was carried out using a scale from 0 to 100. 100 means no emergence of the plants, or complete destruction of at least the aerial moieties, and 0 means no damage, or normal course of growth. A good herbicidal activity is given at values of at least 70 and a very good herbicidal activity is given at values of at least 85. The plants used in the greenhouse experiments belonged to the following species: [table]

## 3-[5-chloro-3-morpholino-2-(trifluoromethyl)phenyl]-1-(2,2-difluoroethyl)-4-hydroxy-1,5-naphthyridin-2-one [I-3]
  herbicidal activity against AMARE: very good (a very good herbicidal activity is given at values of at least 85)
